Experimental data published in PMC11170107, “Development of a new hazard scoring system in primary neuronal cell cultures for drug-induced acute neuronal toxicity identification in early drug discovery” (Frontiers in Pharmacology, 2024).
Entries after “also recorded” stand apart in the source; their conditions may differ.

Test system: not given
Test: not given
Conditions: established from VigiBase, SIDER, Elsevier drug information and FDA prescribing information

Compound	Classification* (degree of seizure risk)
CC(=O)Oc1ccccc1C(=O)O [Aspirin]	No risk
COC(=O)C1=C(C)NC(C)=C([N+](=O)[O-])C1c1ccccc1C(F)(F)F (stereo not shown) [BayK 8644]	No risk
CC(C)C[C@H]1C(=O)N2CCC[C@H]2[C@]2(O)O[C@](NC(=O)[C@@H]3C=C4c5cccc6[nH]c(Br)c(c56)C[C@H]4N(C)C3)(C(C)C)C(=O)N12 [Bromocriptine]	Risk
NS(=O)(=O)c1cc2c(cc1Cl)NC(C1CC3C=CC1C3)NS2(=O)=O (stereo not shown) [Cyclothiazide]	Risk
N[C@@]1(C(=O)O)CC[C@H]2[C@H](C(=O)O)[C@H]21 [Eglumetad (LY354740), Eglumetad]	Risk
CCN(CC)C(=O)/C(C#N)=C/c1cc(O)c(O)c([N+](=O)[O-])c1 [Entacapone]	Risk
CCN1C(=O)OC(C)(C)C1=O [Ethadione]	Risk
NC(=O)OCC(COC(N)=O)c1ccccc1 [Felbamate]	Low risk
CNCCC(Oc1ccc(C(F)(F)F)cc1)c1ccccc1 (stereo not shown) [Fluoxetine]	Risk
COc1ccc(COc2ccc(Cc3cnc(N)nc3N)cc2OC)cc1 [GW-2580]	Risk
NN [Hydrazine]	Risk
NC(CCP(=O)(O)O)C(=O)O [L-AP 4]	Risk
Cc1cc2c(s1)Nc1ccccc1N=C2N1CCN(C)CC1 [Olanzapine]	No risk
C1CCc2nnnn2CC1 [Pentylenetetrazole]	Risk
FC(F)(F)c1ccc(CNc2ccc(Cc3c[nH]c4ncc(Cl)cc34)cn2)cn1 [Pexidartinib]	Risk
[Br-].[K+] [Potassium bromide]	No risk
CCN(CC)CCCC(C)Nc1c2ccc(Cl)cc2nc2ccc(OC)cc12 (stereo not shown) [Quinacrine]	No risk
Cc1ccc(COC(=O)N2CC[C@H](CNc3ncccn3)[C@H](F)C2)cc1 [Rislenemdaz (CERC-301), Rislenemdaz]	Risk
CS(=O)(=O)c1ccc(C2=C(c3ccccc3)C(=O)OC2)cc1 [Rofecoxib]	No risk
CNC(=O)c1cc(Oc2ccc3nc(N[C@@H]4CCCC[C@H]4O)sc3c2)ccn1 [Sotuletinib]	Risk
O=C1C[C@@H]2OCC=C3CN4CC[C@]56c7ccccc7N1[C@H]5[C@H]2[C@H]3C[C@H]46 [Strychnine]	Risk
CN1[C@@H]2CC[C@H]1C[C@@H](OC(=O)c1c[nH]c3ccccc13)C2 [Tropisetron]	No risk
O=C1c2ccccc2C(Cc2ccncc2)(Cc2ccncc2)c2ccccc21 [XE-991]	Risk
CCCCCCOc1nsnc1C1=CCCN(C)C1 [Xanomeline]	Risk
Tertiapin	Low risk

Test system: not given
Test: not given
Conditions: Supplementary Table S1; cited from earlier work

Compound	Free Cmax highest [nM]
CN(C)CCC=C1c2ccccc2CCc2ccccc21 [Amitriptyline]	173
CC(=O)Oc1ccccc1C(=O)O [Aspirin]	43400
CC(C)C[C@H]1C(=O)N2CCC[C@H]2[C@]2(O)O[C@](NC(=O)[C@@H]3C=C4c5cccc6[nH]c(Br)c(c56)C[C@H]4N(C)C3)(C(C)C)C(=O)N12 [Bromocriptine]	1.4
Cn1c(=O)c2c(ncn2C)n(C)c1=O [Caffeine]	23300
Cc1ccc(-c2cc(C(F)(F)F)nn2-c2ccc(S(N)(=O)=O)cc2)cc1 [Celecoxib]	410
NS(=O)(=O)c1cc2c(cc1Cl)NC(C1CC3C=CC1C3)NS2(=O)=O (stereo not shown) [Cyclothiazide]	3000
CCN(CC)C(=O)/C(C#N)=C/c1cc(O)c(O)c([N+](=O)[O-])c1 [Entacapone]	130
NC(=O)OCC(COC(N)=O)c1ccccc1 [Felbamate]	181000
CNCCC(Oc1ccc(C(F)(F)F)cc1)c1ccccc1 (stereo not shown) [Fluoxetine]	470
C[C@](N)(Cc1ccc(O)c(O)c1)C(=O)O [Methyldopa]	3300
FC(F)(F)c1ccc(CNc2ccc(Cc3c[nH]c4ncc(Cl)cc34)cn2)cn1 [Pexidartinib]	100
O=C1NC(=O)C(c2ccccc2)(c2ccccc2)N1 [Phenytoin]	8127
CCN(CC)CCCC(C)Nc1c2ccc(Cl)cc2nc2ccc(OC)cc12 (stereo not shown) [Quinacrine]	130
Cc1ccc(COC(=O)N2CC[C@H](CNc3ncccn3)[C@H](F)C2)cc1 [Rislenemdaz (CERC-301), Rislenemdaz]	4
CS(=O)(=O)c1ccc(C2=C(c3ccccc3)C(=O)OC2)cc1 [Rofecoxib]	130
OC(CCN1CCCCC1)(c1ccccc1)C1CCCCC1 (stereo not shown) [Trihexyphenidyl]	24
CN1[C@@H]2CC[C@H]1C[C@@H](OC(=O)c1c[nH]c3ccccc13)C2 [Tropisetron]	80
CCCC(CCC)C(=O)O [Valproic acid]	92000

Test system: not given
Test: not given
Conditions: WHO adverse drug reactions VigiBase; ref Kumlien and Lundberg, 2010; cited from earlier work

Compound	Percentage seizures of total number of ADRs [%]
CN(C)CCC=C1c2ccccc2CCc2ccccc21 [Amitriptyline]	1.447
CC(=O)Oc1ccccc1C(=O)O [Aspirin]	0.216
CC(C)C[C@H]1C(=O)N2CCC[C@H]2[C@]2(O)O[C@](NC(=O)[C@@H]3C=C4c5cccc6[nH]c(Br)c(c56)C[C@H]4N(C)C3)(C(C)C)C(=O)N12 [Bromocriptine]	3.063
Cc1ccc(-c2cc(C(F)(F)F)nn2-c2ccc(S(N)(=O)=O)cc2)cc1 [Celecoxib]	0.3553
NS(=O)(=O)c1cc2c(cc1Cl)NC(C1CC3C=CC1C3)NS2(=O)=O (stereo not shown) [Cyclothiazide]	0
CCN(CC)C(=O)/C(C#N)=C/c1cc(O)c(O)c([N+](=O)[O-])c1 [Entacapone]	0.4204
NC(=O)OCC(COC(N)=O)c1ccccc1 [Felbamate]	9.4112
CNCCC(Oc1ccc(C(F)(F)F)cc1)c1ccccc1 (stereo not shown) [Fluoxetine]	1.97
C[C@](N)(Cc1ccc(O)c(O)c1)C(=O)O [Methyldopa]	0.1002
FC(F)(F)c1ccc(CNc2ccc(Cc3c[nH]c4ncc(Cl)cc34)cn2)cn1 [Pexidartinib]	0.5386
O=C1NC(=O)C(c2ccccc2)(c2ccccc2)N1 [Phenytoin]	8.075
[Br-].[K+] [Potassium bromide]	4.831
CCN(CC)CCCC(C)Nc1c2ccc(Cl)cc2nc2ccc(OC)cc12 (stereo not shown) [Quinacrine]	1.17
CS(=O)(=O)c1ccc(C2=C(c3ccccc3)C(=O)OC2)cc1 [Rofecoxib]	1.2136
O=C1C[C@@H]2OCC=C3CN4CC[C@]56c7ccccc7N1[C@H]5[C@H]2[C@H]3C[C@H]46 [Strychnine]	0
OC(CCN1CCCCC1)(c1ccccc1)C1CCCCC1 (stereo not shown) [Trihexyphenidyl]	0.7979
CN1[C@@H]2CC[C@H]1C[C@@H](OC(=O)c1c[nH]c3ccccc13)C2 [Tropisetron]	1.067
CCCC(CCC)C(=O)O [Valproic acid]	4.854

Test system: not given
Test: not given
Conditions: seizure ADR frequency in SIDER; ref Campillos et al., 2008; Kuhn et al., 2010; cited from earlier work

Compound	SIDER ADR on-/off-label
CN(C)CCC=C1c2ccccc2CCc2ccccc21 [Amitriptyline]	no frequency information
CC(=O)Oc1ccccc1C(=O)O [Aspirin]	not found on label
CC(C)C[C@H]1C(=O)N2CCC[C@H]2[C@]2(O)O[C@](NC(=O)[C@@H]3C=C4c5cccc6[nH]c(Br)c(c56)C[C@H]4N(C)C3)(C(C)C)C(=O)N12 [Bromocriptine]	postmarketing
Cc1ccc(-c2cc(C(F)(F)F)nn2-c2ccc(S(N)(=O)=O)cc2)cc1 [Celecoxib]	not found on label
CCN(CC)C(=O)/C(C#N)=C/c1cc(O)c(O)c([N+](=O)[O-])c1 [Entacapone]	no frequency information
NC(=O)OCC(COC(N)=O)c1ccccc1 [Felbamate]	not found on label
CNCCC(Oc1ccc(C(F)(F)F)cc1)c1ccccc1 (stereo not shown) [Fluoxetine]	uncommon
C[C@](N)(Cc1ccc(O)c(O)c1)C(=O)O [Methyldopa]	not found on label
O=C1NC(=O)C(c2ccccc2)(c2ccccc2)N1 [Phenytoin]	infrequent (0.1-1%)
CS(=O)(=O)c1ccc(C2=C(c3ccccc3)C(=O)OC2)cc1 [Rofecoxib]	not found on label
OC(CCN1CCCCC1)(c1ccccc1)C1CCCCC1 (stereo not shown) [Trihexyphenidyl]	not found on label
CN1[C@@H]2CC[C@H]1C[C@@H](OC(=O)c1c[nH]c3ccccc13)C2 [Tropisetron]	not found on label
CCCC(CCC)C(=O)O [Valproic acid]	not found on label

Test system: not given
Test: not given
Conditions: ref National library of medicine, Daylimed; cited from earlier work

Compound	FDA prescription information at therapeutic dose (Convulsion/ Seizure/Lower the seizure threshold/withdrawal)
CN(C)CCC=C1c2ccccc2CCc2ccccc21 [Amitriptyline]	not found on label
CC(=O)Oc1ccccc1C(=O)O [Aspirin]	not found on label
CC(C)C[C@H]1C(=O)N2CCC[C@H]2[C@]2(O)O[C@](NC(=O)[C@@H]3C=C4c5cccc6[nH]c(Br)c(c56)C[C@H]4N(C)C3)(C(C)C)C(=O)N12 [Bromocriptine]	On label
Cc1ccc(-c2cc(C(F)(F)F)nn2-c2ccc(S(N)(=O)=O)cc2)cc1 [Celecoxib]	not found on label
CCN(CC)C(=O)/C(C#N)=C/c1cc(O)c(O)c([N+](=O)[O-])c1 [Entacapone]	not found on label
NC(=O)OCC(COC(N)=O)c1ccccc1 [Felbamate]	on label
CNCCC(Oc1ccc(C(F)(F)F)cc1)c1ccccc1 (stereo not shown) [Fluoxetine]	On label
C[C@](N)(Cc1ccc(O)c(O)c1)C(=O)O [Methyldopa]	not found on label
FC(F)(F)c1ccc(CNc2ccc(Cc3c[nH]c4ncc(Cl)cc34)cn2)cn1 [Pexidartinib]	not found on label
O=C1NC(=O)C(c2ccccc2)(c2ccccc2)N1 [Phenytoin]	On label
[Br-].[K+] [Potassium bromide]	not found on label
CCN(CC)CCCC(C)Nc1c2ccc(Cl)cc2nc2ccc(OC)cc12 (stereo not shown) [Quinacrine]	not found on label
OC(CCN1CCCCC1)(c1ccccc1)C1CCCCC1 (stereo not shown) [Trihexyphenidyl]	not found on label
CCCC(CCC)C(=O)O [Valproic acid]	on label

Test system: rat primary cortical neurons
Test: MEA hazard scoring in rat primary cortical neuronal cultures
Conditions: rat primary neurons on MEA
Description: At DIV28, spontaneous neuronal activity obtained for 30 min in culture solution was defined as the baseline.
Data analysis was captured using AxIs suite software (Axion Biosystems Inc., version 3.6.2) and further analyzed using GraphPad Prism (version 9.00; GraphPad Software Inc., San Diego, CA). […] An active well should have more than 40% active electrodes. All wells below this threshold were discarded upon these quality criteria. For the downstream statistical analysis, the data on each MEA parameter was first expressed as the ratio of exposed wells (percentage change between baseline and the treatment) and then normalized to the average of the control within the same plate. i.e., Baseline corrected ratios of n= 7 or eight wells were averaged per condition. Each well of the MEA served as its own control, and the changes in the electrical activity elicited by the treatments were expressed as a percentage of that control activity and normalized to the wells treated with the vehicle control dimethyl sulfoxide (DMSO). […] Differences were determined using the non-parametric Wilcoxon Mann Whitney test; p-values below 0.05 were considered significant. Data are expressed as means ± S.E.M.
Thereafter, based on the effects of vehicles and positive controls, we determined the cut-off points between the different effect zones according to the key parameters selected as described in the previous subsection. The zones were defined as follows. The “no effect” zone reflects parameter changes that are most likely within vehicle variability. The “mild” and “strong” zones are differentiated bidirectionally showing mild and strong effects.
The respective hazard class was determined by a cumulative scoring of individual parameters using a scoring matrix, which was based on the following three fundamental components: (1) selection of the six key relevant parameters, (2) defining the cutoffs for the level of effect, and (3) defining weighted points per parameter for the level of hazard potential. The scoring matrix concluded with the addition of a weighted point algorithm to discriminate distinct degrees of neuronal hazard. […] The weighted points were defined on the importance of a parameter (and the direction of effect), as well as the identification of an expected hazard for different pharmacological modes of action. The overall hazard score is derived from the sum of all weighted parameters, which could be converted into a specific hazard label. The weighted points and total score range associated with the various hazard labels were optimized using an iterative process.

Compound	hazard classification in the hazard scoring system
Cc1ccc(-c2cc(C(F)(F)F)nn2-c2ccc(S(N)(=O)=O)cc2)cc1 [Celecoxib]	high hazard
C[C@](N)(Cc1ccc(O)c(O)c1)C(=O)O [Methyldopa]	high hazard
O=C1NC(=O)C(c2ccccc2)(c2ccccc2)N1 [Phenytoin]	hazards; also recorded: high hazard

Same assay, conditions: statistical tolerance interval of the ΔΔ% effect; One-sided interval

Compound	Area.Under.Cross.Correlation Lower.TI	Area.Under.Cross.Correlation Upper.TI	Burst.Duration...Avg.(s. Lower.TI)	Burst.Duration...Avg.(s. Upper.TI)	Mean.Firing.Rate..Hz. Lower.TI	Mean.Firing.Rate..Hz. Upper.TI	Median.Mean.ISI Lower.TI	Median.Mean.ISI Upper.TI
CN(C)CCC=C1c2ccccc2CCc2ccccc21 [Amitriptyline]	-100	-28.75	-100	2740	-100	-25.19	-60.49	9.96
Cn1c(=O)c2c(ncn2C)n(C)c1=O [Caffeine]	6.336	111.5	-5.73	16.22	8.914	94.17	-1.251	10.27
C[C@]12N[C@H](Cc3ccccc31)c1ccccc12 [Dizocilpine (MK-801), Dizocilpine]	-94.33	-47.25	-41.38	248.8	-92.35	-66.07	-38.05	23.07
